Patent publication US20260118363A1, “Application of GLUN2A and NMDA Receptor Containing GLUN2A as Targets in Screening Drugs for Treating Depression” (Synphatec (Shanghai) Biopharmaceutical Technology Co., Ltd., priority 2021, published 2026)

Legend:
[1] = system: excitatory neurons in the hippocampus; assay: Whole cell recording of intrinsic excitability in hippocampal slices; assay type: cell-based, mouse; conditions: for excitability of hippocampal neurons (number of action potentials): MK-801 10 µM, ketamine 20 µM
Protocol: The beaker containing choline chloride slice solution was placed in an ice box and continuously introduced with a mixture of 95% O2 and 5% CO2 to saturate it with oxygen for use. After anesthetized with isoflurane, mice aged 4-8 weeks were quickly decapitated and euthanized. After exposing the skull and peeling off the dura mater, the whole brain was placed in a pre-cooled choline chloride solution for about 1 minute to reduce brain temperature. The whole brain was then taken out and the bilateral hippocampus were peeled off and attached to the surface of the agar block with one end of the hippocampus close to one of the edges of the agar block, after which the hippocampus-attached agar block was glued with 502 adhesive to a removable tray of the oscillating slicer, which was secured in the slicing tank of the oscillating slicer filled with pre-cooled choline chloride slicing solution. The oscillating slicer blade was adjusted to the horizontal position, then start the slicer to begin slice. The speed of the oscillating slicer was set to about 0.2 mm/s, and the slice thickness was 400 μm. The sliced hippocampus was carefully placed into ACSF preheated in water bath at 33-34° C. using a rubber hose and incubated for 30-60 minutes with a continuous introduction of a gas mixture of 95% O2 and 5% CO2. After incubation at 33-34° C., the vessel containing the brain slices was removed from the water bath and incubated at room temperature for about 30 min with continuous aeration and then electrophysiological recordings were performed. Hippocampal slices can be used for about 6 hours under room temperature with continuous aeration.
Hippocampal slices after incubation were carefully transferred to the bath of the microscope carrier stage with a pipette, and were held in place by pressing using an anchor attached to parallel nylon filaments, using a peristaltic pump to keep the bath continuously pumped with oxygen-saturated ACSF, and the temperature was maintained at room temperature of about 23-26° C. The CA1 region of the hippocampus was firstly localised at low magnification (10×), then switching to high magnification (40×) to locate CA1, after which the field of view was switched to the monitor to look for pyramidal neurons with good condition in hippocampal CA1. […] In the experiment, a P-1000 electrode drawing instrument was used to draw glass electrodes using a three-step method, making the impedance of the electrode into the liquid 4-6 MS2. Prior to electrode into the liquid, a 10 ml syringe was used to apply about 2 ml or so of positive pressure into the electrode to prevent clogging of the electrode tip, and the baseline of the recording software was reset to zero using the Multiple 700B. A microelectrode operator was applied to slowly approach the electrode to the surface of the cell. When the electrode touched the surface of the cell, a “dimple-shaped” depression would appear. At this time, positive pressure would be immediately released and appropriate negative pressure would be applied to form a seal between the electrode and the cell. […] After stabilizing for about 30-60 seconds, negative pressure was applied to break the membrane, and at this moment, a whole cell mode was formed. In current clamp mode, a depolarized step current stimulation of 10-330 pA was applied, with a step current of 20 pA. The intrinsic excitability of the neuron was evaluated by analyzing the number of action potentials generated by the neuron.

mice [2] = assay: Forced swim test; assay type: in vivo, mouse; conditions: for immobility time in the forced swim test: 10 mg/kg intraperitoneal injection, 1 hour after injection
Protocol: The mice were placed in a transparent organic glass water tank with a diameter of 25 cm and a height of 30 cm, which was filled with 15 cm high of water with a temperature of 23-25° C., and the total recording time was 6 min. The immobility time of the mice within the latter 4 min was analysed, reflecting the degree of helplessness and despair of the mice.
(§1) MK-801 at a dose of 0.1 mg/kg, ketamine at a dose of 10 mg/kg, and Ro 25-6981 at a dose of 10 mg/kg were administrated to mice by intraperitoneal injection. Behavioural experiments such as subsequent open field tests, tail suspension tests, and forced swim tests were carried out 1 hour post intraperitoneal injection.

mice [3] = assay: Tail suspension test; assay type: in vivo, mouse; conditions: 10 mg/kg
Protocol: After fixing the mice at about 1.5 cm from the distal end of the tail, the mice were suspended with their heads facing downwards at a distance of about 35 cm from the ground. The total duration of recording was 6 min, and the percentage of time that the mice remained stationary during the latter 4 min was analysed to reflect the degree of desperation of mice.
as §1

[4] = hippocampal slices from GluN2A KO mice
[5] = hippocampal slices from WT mice, Ro 25-6981 3 M (1-2 hours incubation), same depolarizing current stimulation
[6] = GluN2A KO mice, vs control group

Row | Structure (SMILES) | intrinsic excitability of excitatory neurons in the hippocampus ([1]; acute hippocampal slices of WT mice incubated with Ro 25-6981 while adding MK-801) | excitability of hippocampal neurons (number of action potentials) [1, 4] | excitability of hippocampal neurons (number of action potentials) [1, 5] | immobility time in the forced swim test (mice [2]; [6]) | immobility time in forced swimming (mice [2]; GluN2A conditional knockout mice (tamoxifen-induced, adult), after treatment with MK-801 (FIG. 5)) | rapid antidepressant like behavior (immobility time) (mice [2]; WT mice with GluN2B selectively inhibited by Ro 25-6981 plus MK-801, FIG. 11: tail suspension and forced swim tests) | immobility time in the forced swim test (mice [2]; WT mice, vs control (saline)) | immobility time in forced swimming (mice [2]; control mice (UBC-CreERT/Grin2a flox/flox without GluN2A knockout), after administration of MK-801 (FIG. 5)) | immobility time in tail suspension test (mice [3]; GluN2A KO mice) | immobility time in tail suspension test (mice [3]; WT mice, vs control (Saline) group)
1 | C[C@]12N[C@H](Cc3ccccc31)c1ccccc12 [MK-801] | still induced an increase | blocked the increase in excitability | significantly increased | comparable | not altered | can still induce rapid antidepressant like behavior | significantly reduced | significantly reduced |  | 
2 | C[C@@H](CN1CCC(Cc2ccccc2)CC1)[C@@H](O)c1ccc(O)cc1 [Ro 25-6981] |  |  | did not change | significantly reduced |  |  | significant decrease |  | significantly reduced | significant decrease
3 | CNC1(c2ccccc2Cl)CCCCC1=O (centres unmarked) [ketamine] |  | blocked the increase in excitability | significantly increased | comparable |  |  | significantly reduced |  |  | 
